Experimental data published in BigSolDB 2.1.

COC(=O)NCCCCCCNC(=O)OC
solubility (mole fraction)
Settings	298.15 K	300.15 K	303.15 K	308.15 K	313.15 K	318.15 K	323.15 K	328.15 K	333.15 K
in dimethyl carbonate	0.00596	0.00689	0.00839	0.0117	0.0161	0.0207	0.026	0.0338	0.042
in ethanol	0.0155	0.0179	0.0205	0.0279	0.0355	0.0463	0.0625	0.0769	0.0987
in ethyl acetate	0.00814	0.00976	0.0124	0.0176	0.0233	0.029	0.0369	0.0445	0.0536
in toluene	0.00731	0.00912	0.0111	0.0167	0.0232	0.0353	0.0462	0.0614	0.0824
in water	6.21e-05	6.92e-05	7.91e-05	0.000106	0.000146	0.000185	0.00025	0.000339	0.000439
